In patent publication EP1282604B1, “SUBSTITUTED CAPROLACTAM CARBONATES AND ETHERS AND THEIR USE AS ANTI-TUMOR AGENTS” (Novartis AG, priority 2000, dated 2001):
Read-outs that look alike come from different tables or passages of the source.

What was measured:
[1] = test system: MDA-MB-435 human breast carcinoma; assay: Anchorage Dependent Growth Monolayer Assay (ADGMA), MTS readout; assay type: cell-based; details: 3-day exposure, MDA-MB-435 cells, read-out: IC50 values (average ± S.D.) MDA-MB-435
Excerpt: (§1) As indicated above, all of the compounds of formula I, and their corresponding pharmaceutically acceptable acid addition salts, are anti-tumor agents and are, therefore, useful in inhibiting the growth of various lymphomas, sarcomas, carcinomas, myelomas, and leukemia cell lines. […] This assay was adapted from the 60 cell line assay used by the National Cancer Institute (NCl) with the following modifications: 1) cell lines representative for the important tumor types, viz., MDA-MB-435 human breast, A549 non-small cell lung, H1299 lung, HCT-116 colon and PC-3 prostate carcinomas, and U2OS osteosarcomas were utilized; and 2) a tetrazolium derivative, viz., 3-(4,5-dimethylthiazol-2-yl)-5-(3-carboxymethoxyphenyl)-2-(4-sulfophenyl)-2H-tetrazolium, inner salt (MTS), was utilized to determine cell density.
(§2) The ADGMA compares the number of viable cells following a 3-day exposure to a test compound relative to a number of cells present at the time the test compound was added. […] The absorbance at 490 nm (A490) of the formazan derivative is proportional to the number of viable cells. The IC50 for a test compound is the concentration of compound required to reduce the final cell number to 50% of the final control cell number. If cell proliferation is inhibited, the assay further defines compounds as cytostatic (cell number after 3-day compound incubation >cell number at time of compound addition) or cytotoxic (cell number after 3-day compound incubation <cell number at time of compound addition).
(§3) The MDA-MB-435 human breast carcinoma and the A549 non-small cell lung carcinoma lines were obtained from the American Type Culture Collection (ATCC) and used between passages 4-20 following thawing. MDA-MB-435 human breast carcinoma and A549 non-small cell lung carcinoma cells were maintained and plated in DME/F12 medium containing 10% fetal bovine serum, 15 mM HEPES (pH=7.4), 100 units/mL penicillin, and 100 µg/mL streptomycin.
(§4) Cell lines are trypsinized and counted using a Coulter counter to determine plating densities. Cells are then plated in their respective maintenance media (100 µL/well) in 96 well plates at the following densities: MDA-MB-435 and U2OS, 3,000 cells/well; A549 and HCT-116, 700 cells/well; H1299, 1,000 cells/well; and PC-3, 2500 cells/well. The number of cells plates as determined in preliminary experiments, results in cell densities of 75-90% of confluency by 4 days after plating. Initial cell densities, assayed one day after plating, are roughly 0.15-0.20 absorbance units greater than the media blank. Ninety-six well plates are seeded on day 0 and the test compounds are added on day 1. A control plate is created for each cell line that receives media only in row A and cells in row B. One day following plating, test compounds are added (in a final volume of 100 µL) to the test plates. Control plates receive 10 µL MTS mixture (prepared fresh on day of addition to cell plates at a ratio of 10 µL of a 0.92 mg/mL solution of PMS to a 190 µL of a 2 mg/mL solution of MTS) and 100 µL media. A490 of control plates is read 4 h after MTS addition to determine initial cell density values for each cell line. Three days after addition of test compound, 10 µL/well of MTS mixture is added to the test plates and A490 is read 4 h later. A490 values for wells containing cells are corrected for media absorbance, then normalized to initial density readings to determine percent net growth. IC50 values are determined from graphs of percent net growth as a function of compound concentration. Percent net growth is calculated as (Cell + Drug A490 - Initial A490/Cell + Drug Vehicle A490 - Initial A490) x 100%.

H1299 lung carcinoma = assay: as above; assay type: cell-based; details: 3-day exposure, H1299 cells, read-out: IC50 values (average ± S.D.) H1299
Excerpt: as §1, §2
(§5) The H1299 lung, HCT-116 colon, and PC-3 prostate carcinoma cell lines, and U2OS osteosarcoma cell line were obtained from the American Type Culture Collection (ATCC) and used between passages 4-20 following thawing. H1299 and HCT-116 cells were maintained in RPMI 1640 containing 10% FBS, 100 units/mL penicillin and 100 µg/mL streptomycin; PC-3 cells were maintained in Kahn's Modification containing 10% FBS, 100 units/mL penicillin and 100 µg/mL streptomycin; and U2OS cells were maintained in DMEM containing 10% FBS, 100 units/mL penicillin and 100 µg/mL streptomycin.
as §4

HCT-116 colon carcinoma = assay: as above; assay type: cell-based; details: 3-day exposure, HCT-116 cells, read-out: IC50 values (average ± S.D.) HCT-116
Excerpt: as §1, §2, §5, §4

U2OS osteosarcoma = assay: as above; assay type: cell-based; details: 3-day exposure, U2OS cells, read-out: IC50 values (average ± S.D.) U2OS
Excerpt: as §1, §2, §5, §4

[2] = test system: MDA-MB-435 tumor xenografts; assay: Human tumor xenograft growth inhibition in athymic nude mice; assay type: in vivo; details: 3X/week for 3 weeks; for %T/C: * = p<0.05
Experimental: (§6) Utilizing this model, one can measure the ability of test compounds to inhibit the growth of human tumor xenografts growing subcutaneously (s.c.) in athymic nude mice. The histologic tumor type employed was MDA-MB-435 breast carcinoma for Ex.1 and 7 and A549 non-small cell lung carcinoma for Ex. 1-3.
MDA-MB-435 human breast carcinoma: Treatments were started 15 d post implantation (3 x 10^6 cells/mouse), when a mean tumor volume of approximately 45 mm^3 was reached. Ex.1 and 7 were administered iv at three times per week for 3 weeks (days 15, 17, 20, 22, 24, 27, 29, and 31), at 3.3, 10, and 33 µmol/kg. Doxorubicin was administered iv at 2 mg/kg using the same schedule. Each data point represents tumor growth (mean ± SEM), or body weight (mean), with an initial group size of n = 8, from a representative experiment performed twice. An asterisk (*) indicates p < 0.05 using a one-tailed Student's t-test.
(§7) Toxicity was monitored by recording average group body weights twice weekly, and by daily observation of general health. Efficacy was monitored by taking measurements of tumor length, width, and depth weekly using digital calipers coupled to automated data collectors. Mean tumor volume (MTV) at initiation of therapy was subtracted from final MTV in order to express the actual tumor growth during treatment (A MTV). Anti-tumor activity was expressed as %T/C (A MTV of treated group ÷ Δ MTV of control group X100%). Statistical significance was evaluated using a one-tailed Student's t-test (p<0.05).

A549 tumor xenografts = assay: as above; assay type: in vivo; details: 5X/week for 2 weeks; for Δ MTV / %T/C: recorded on day 24; for %T/C: * = p<0.05
Experimental: as §6
A549 non-small cell lung carcinoma: Treatments were started 17 d post-implantation (1 x 10^7 cells/mouse), when a mean tumor volume of approximately 120 mm^3 was reached. Ex. 1-3 were administered iv on days 17-21 (followed by 2 d rest, then a second cycle of treatment on days 24-28). Total daily doses of 10 or 30 µmol/kg were administered as a single injection. Data in this table were recorded on day 24, 3 d after the last treatment of the first cycle. An asterisk (*) indicates p < 0.05 using a one-tailed Student's t-Test.
as §7

[3] = test system: A549 non-small cell lung carcinoma; assay: Anchorage Dependent Growth Monolayer Assay (ADGMA), MTS readout; assay type: cell-based, human; details: 3-day exposure, A549 cells, read-out: IC50 values (average ± S.D.) A549
Excerpt: as §1, §2, §3, §4

Row | SMILES | IC50 ([1]; Homo sapiens, 72 h) | IC50 (H1299 lung carcinoma; Homo sapiens, NCI-H1299, 72 h) | IC50 (HCT-116 colon carcinoma; Homo sapiens, 72 h) | IC50 (U2OS osteosarcoma; Homo sapiens, 72 h) | Dead/Total ([2]; 3.3 µmol/kg iv) | Δ MTV ([2]; 3.3 µmol/kg iv) | %T/C ([2]; 3.3 µmol/kg iv) | Dead/Total ([2]; 10 µmol/kg iv) | Δ MTV ([2]; 10 µmol/kg iv) | %T/C ([2]; 10 µmol/kg iv) | Dead/Total ([2]; 33 µmol/kg iv) | Δ MTV ([2]; 33 µmol/kg iv) | %T/C ([2]; 33 µmol/kg iv) | Dead/Total (A549 tumor xenografts; 10 µmol/kg iv daily) | Δ MTV (A549 tumor xenografts; 10 µmol/kg iv daily) | %T/C (A549 tumor xenografts; 10 µmol/kg iv daily) | Dead/Total (A549 tumor xenografts; 30 µmol/kg iv daily) | Δ MTV (A549 tumor xenografts; 30 µmol/kg iv daily) | %T/C (A549 tumor xenografts; 30 µmol/kg iv daily) | IC50 ([3]; Homo sapiens, 72 h) | other results
1 | CCCCCCCCCCOC(=O)O[C@@H]1CC[C@H](NC(=O)[C@H](OC)[C@H](O)[C@@H](O)[C@H](O)/C=C/C(C)(C)C)C(=O)NC1 [Ex. 1, (2R, 3R, 4S, 5R, 6E)-3,4,5-trihydroxy-2-methoxy-8,8-dimethyl-N-[(3S, 6R)-hexahydro-2-oxo-6-([[decyloxy]carbonyl]oxy)-2H-azepin-3-yl]non-6-enonamide] | 210 ± 140 nM | 570 ± 220 nM | 530 ± 350 nM | > 1000 nM | 0/8 | 132 mm^3 | 74* % | 0/8 | 162 mm^3 | 90% | 0/8 | 79 mm^3 | 44* % | 0/8 | 95 mm^3 | 73% | 0/8 | 39 mm^3 | 30* % |  | 
2 | CO[C@@H](C(=O)N[C@H]1CC[C@@H](OC(=O)OC2CCCCC2)CNC1=O)[C@H](O)[C@@H](O)[C@H](O)/C=C/C(C)(C)C [Ex. 6, (2R, 3R, 4S, 5R, 6E)-3,4,5-trihydroxy-2-methoxy-8,8-dimethyl-N-[(3S, 6R)-hexahydro-2-oxo-6-([[cyclohexyloxy]carbonyl]oxy)-2H-azepin-3-yl]non-6-enonamide] | 350 ± 110 nM | 570 ± 290 nM | 400 ± 120 nM | 770 ± 400 nM |  |  |  |  |  |  |  |  |  |  |  |  |  |  |  | 441 ± 63 nM | 
3 | CO[C@@H](C(=O)N[C@H]1CC[C@@H](OC(=O)OCCc2ccccc2)CNC1=O)[C@H](O)[C@@H](O)[C@H](O)/C=C/C(C)(C)C [Ex. 3, (2R, 3R, 4S, 5R, 6E)-3,4,5-trihydroxy-2-methoxy-8,8-dimethyl-N-[(3S, 6R)-hexahydro-2-oxo-6-([[2-phenylethoxy]carbonyl]oxy)-2H-azepin-3-yl]non-6-enonamide] | 80 ± 30 nM | 330 ± 270 nM | 160 ± 30 nM | 310 ± 40 nM |  |  |  |  |  |  |  |  |  | 0/8 | 106 mm^3 | 82% | 0/8 | 55 mm^3 | 42* % | 132 ± 20 nM | 
4 | CCCCCOC(=O)O[C@@H]1CC[C@H](NC(=O)[C@H](OC)[C@H](O)[C@@H](O)[C@H](O)/C=C/C(C)(C)C)C(=O)NC1 [Ex. 2, (2R, 3R, 4S, 5R, 6E)-3,4,5-trihydroxy-2-methoxy-8,8-dimethyl-N-[(3S, 6R)-hexahydro-2-oxo-6-([[pentyloxy]carbonyl]oxy)-2H-azepin-3-yl]non-6-enonamide] |  |  |  |  |  |  |  |  |  |  |  |  |  | 0/8 | 42 mm^3 | 32* % | 0/8 | 60 mm^3 | 46* % |  | IC50 [1]: 70 ± 20 nM; IC50 [3]: 117 ± 20 nM; IC50 (H1299 lung carcinoma): 210 ± 170 nM; IC50 (HCT-116 colon carcinoma): 170 ± 100 nM; IC50 (U2OS osteosarcoma): 90 ± 30 nM
5 | CO[C@@H](C(=O)N[C@H]1CC[C@@H](OC(=O)OCC(C)(C)C)CNC1=O)[C@H](O)[C@@H](O)[C@H](O)/C=C/C(C)(C)C [Ex. 5, (2R, 3R, 4S, 5R, 6E)-3,4,5-trihydroxy-2-methoxy-8,8-dimethyl-N-[(3S, 6R)-hexahydro-2-oxo-6-([[2,2-dimethylpropoxy]carbonyl]oxy)-2H-azepin-3-yl]non-6-enonamide] | 120 ± 20 nM | 360 ± 120 nM | 270 ± 100 nM | 620 ± 160 nM |  |  |  |  |  |  |  |  |  |  |  |  |  |  |  | 138 ± 8 nM | 
6 | CCCCCCCCCCCOCC(=O)O[C@@H]1CC[C@H](NC(=O)[C@H](OC)[C@H](O)[C@@H](O)[C@H](O)/C=C/C(C)(C)C)C(=O)NC1 [Ex. 7, (2R, 3R, 4S, 5R, 6E)-3,4,5-trihydroxy-2-methoxy-8,8-dimethyl-N-[(3S, 6R)-hexahydro-2-oxo-6-([[undecyloxy]acetyl]oxy)-2H-azepin-3-yl]non-6-enonamide] |  |  |  |  | 0/8 | 165 mm^3 | 102% | 0/8 | 103 mm^3 | 64% | 0/8 | 48 mm^3 | 30* % |  |  |  |  |  |  |  | 
